Experimental data as given in ChEMBL document CHEMBL1154038, “Discovery of orally active, pyrrolidinone-based progesterone receptor partial agonists” (Bioorg Med Chem Lett, 2009).

Key:
[1] = Plasma clearance in rat at 2.2 mg/kg, po; type: ADME, organism-based; set-up: dose 2.2 mg/kg, route oral
[2] = Volume of distribution at steady state in rat at 1 mg/kg, iv or 2.2 mg/kg, po; type: ADME, organism-based; conditions: in vivo, read-out: Vdss
[3] = Cmax in rat at 2.2 mg/kg, po; type: ADME, organism-based; set-up: dose 2.2 mg/kg, route oral; conditions: in vivo
[4] = AUC (0 to t) in rat at 2.2 mg/kg, po; type: ADME, organism-based; set-up: dose 2.2 mg/kg, route oral; conditions: plasma
[5] = Half life in rat at 2.2 mg/kg, po; type: ADME, organism-based; set-up: dose 2.2 mg/kg, route oral; conditions: in vivo
[6] = Oral bioavailability in rat at 2.2 mg/kg; type: ADME, organism-based; conditions: in vivo
[7] = Plasma clearance in monkey at 1.6 mg/kg, po; type: ADME, organism-based, Macaca mulatta; set-up: dose 1.6 mg/kg, route oral; conditions: rhesus monkey
[8] = Volume of distribution at steady state in monkey at 1 mg/kg, iv or 1.6 mg/kg, po; type: ADME, organism-based, Macaca mulatta; conditions: rhesus monkey, in vivo, read-out: Vdss
[9] = Cmax in monkey at 1.6 mg/kg, po; type: ADME, organism-based, Macaca mulatta; set-up: dose 1.6 mg/kg, route oral; conditions: rhesus monkey, in vivo
[10] = AUC (0 to t) in monkey at 1.6 mg/kg, po; type: ADME, organism-based, Macaca mulatta; set-up: dose 1.6 mg/kg, route oral; conditions: rhesus monkey, plasma
[11] = Half life in monkey at 1.6 mg/kg, po; type: ADME, organism-based, Macaca mulatta; set-up: dose 1.6 mg/kg, route oral; conditions: rhesus monkey, in vivo
[12] = Oral bioavailability in monkey at 1.6 mg/kg, po; type: ADME, organism-based, Macaca mulatta; conditions: rhesus monkey, in vivo
[13] = Plasma clearance in rat at 0.12 mg/kg, po; type: ADME, organism-based; set-up: dose 0.12 mg/kg, route oral
[14] = Volume of distribution at steady state in rat at 1.1 mg/kg, iv or 0.12 mg/kg, po; type: ADME, organism-based; conditions: in vivo, read-out: Vdss
[15] = Cmax in rat at 0.12 mg/kg, po; type: ADME, organism-based; set-up: dose 0.12 mg/kg, route oral; conditions: in vivo
[16] = AUC (0 to t) in rat at 0.12 mg/kg, po; type: ADME, organism-based; set-up: dose 0.12 mg/kg, route oral; conditions: plasma
[17] = Half life in rat at 0.12 mg/kg, po; type: ADME, organism-based; set-up: dose 0.12 mg/kg, route oral; conditions: in vivo
[18] = Oral bioavailability in rat at 0.12 mg/kg; type: ADME, organism-based; conditions: in vivo
[19] = Plasma clearance in rat at 1.3 mg/kg, po; type: ADME, organism-based; set-up: dose 1.3 mg/kg, route oral
[20] = Volume of distribution at steady state in rat at 1 mg/kg, iv or 1.3 mg/kg, po; type: ADME, organism-based; conditions: in vivo, read-out: Vdss
[21] = Cmax in rat at 1.3 mg/kg, po; type: ADME, organism-based; set-up: dose 1.3 mg/kg, route oral; conditions: in vivo
[22] = AUC (0 to t) in rat at 1.3 mg/kg, po; type: ADME, organism-based; set-up: dose 1.3 mg/kg, route oral; conditions: plasma
[23] = Half life in rat at 1.3 mg/kg, po; type: ADME, organism-based; set-up: dose 1.3 mg/kg, route oral; conditions: in vivo
[24] = Oral bioavailability in rat at 1.3 mg/kg; type: ADME, organism-based; conditions: in vivo
[25] = Plasma clearance in rat at 2.0 mg/kg, po; type: ADME, organism-based; set-up: dose 2 mg/kg, route oral
[26] = Volume of distribution at steady state in rat at 1.1 mg/kg, iv or 2 mg/kg, po; type: ADME, organism-based; conditions: in vivo, read-out: Vdss
[27] = Cmax in rat at 2 mg/kg, po; type: ADME, organism-based; set-up: dose 2 mg/kg, route oral; conditions: in vivo
[28] = AUC (0 to t) in rat at 2 mg/kg, po; type: ADME, organism-based; set-up: dose 2 mg/kg, route oral; conditions: plasma
[29] = Half life in rat at 2 mg/kg, po; type: ADME, organism-based; set-up: dose 2 mg/kg, route oral; conditions: in vivo
[30] = Oral bioavailability in rat at 2 mg/kg; type: ADME, organism-based; conditions: in vivo
[31] = Plasma clearance in monkey at 1.3 mg/kg, po; type: ADME, organism-based, Macaca mulatta; set-up: dose 1.3 mg/kg, route oral; conditions: rhesus monkey
[32] = Volume of distribution at steady state in monkey at 1 mg/kg, iv or 1.3 mg/kg, po; type: ADME, organism-based, Macaca mulatta; conditions: rhesus monkey, in vivo, read-out: Vdss
[33] = Cmax in monkey at 1.3 mg/kg, po; type: ADME, organism-based, Macaca mulatta; set-up: dose 1.3 mg/kg, route oral; conditions: rhesus monkey, in vivo
[34] = AUC (0 to t) in monkey at 1.3 mg/kg, po; type: ADME, organism-based, Macaca mulatta; set-up: dose 1.3 mg/kg, route oral; conditions: rhesus monkey, plasma
[35] = Half life in monkey at 1.3 mg/kg, po; type: ADME, organism-based, Macaca mulatta; set-up: dose 1.3 mg/kg, route oral; conditions: rhesus monkey, in vivo
[36] = Oral bioavailability in monkey at 1.3 mg/kg, po; type: ADME, organism-based, Macaca mulatta; conditions: rhesus monkey, in vivo

SMILES: CN1C[C@@H](N(Cc2cccc(F)c2F)c2ccc(C#N)c(Cl)c2)CC1=O
- CL/F [1]: 16 mL/min/kg
- Vd [2]: 3.4 L/kg
- Cmax [3]: 660 ng/mL
- AUC(0-t) [4]: 2300 ng·h/mL
- half-life [5]: 6.2 h
- bioavailability [6]: 100%
- CL/F [7]: 110 mL/min/kg
- Vd [8]: 1.7 L/kg
- Cmax [9]: 92 ng/mL
- AUC(0-t) [10]: 270 ng·h/mL
- half-life [11]: 1.4 h
- bioavailability [12]: 15%

SMILES: CC(C)N1C[C@@H](N(Cc2ccccc2Cl)c2ccc(C#N)c(Cl)c2)CC1=O
- CL/F [13]: 40 mL/min/kg
- Vd [14]: 42 L/kg
- Cmax [15]: 10 ng/mL
- AUC(0-t) [16]: 30 ng·h/mL
- half-life [17]: 5.8 h
- bioavailability [18]: 100%

SMILES: CCN1C[C@@H](N(Cc2cc(F)ccc2Cl)c2ccc(C#N)c(Cl)c2)CC1=O
- CL/F [19]: 75 mL/min/kg
- Vd [20]: 15 L/kg
- Cmax [21]: 97 ng/mL
- AUC(0-t) [22]: 290 ng·h/mL
- half-life [23]: 2 h
- bioavailability [24]: 100%

SMILES: CCN1C[C@@H](N(Cc2cc(Cl)ccc2Cl)c2ccc(C#N)c(Cl)c2)CC1=O
- CL/F [25]: 230 mL/min/kg
- Vd [26]: 35 L/kg
- Cmax [27]: 84 ng/mL
- AUC(0-t) [28]: 150 ng·h/mL
- half-life [29]: 1.8 h
- bioavailability [30]: 100%
- CL/F [31]: 480 mL/min/kg
- Vd [32]: 2.8 L/kg
- Cmax [33]: 15 ng/mL
- AUC(0-t) [34]: 32 ng·h/mL
- half-life [35]: 1.5 h
- bioavailability [36]: 4.9%
